Source: patent US20080305092A1, “Methods of treating autoimmune disease via CTLA-4IG” (THE REGENTS OF THE UNIVERSITY OF MICHIGAN, priority 1993, published 2008)

Tests used:
Jurkat line JHMI-2.2 = assay: Cell death of Jurkat cells, visual grading and trypan blue; format: cell-based, human; conditions: scored after 1 to 3 days; 9.3 mAb 10 μg/ml, carbacol 30 μM
Method: A series of experiments were done to test whether anti-CD28 mAb might prevent cell death in mature T cells. Jurkat leukemia cells are commonly used as an example of mature T cells that mimic physiologic effects found in peripheral blood T cells. […] The Jurkat line JHMI-2.2 was obtained from A. Weiss (UCSF); the muscarinic M1 receptor subtype has been transfected and is stably expressed in these cells. JHMI-2.2 cells, 0.3×10^6/well, were added to culture wells in complete medium, or to wells that contained plastic-adsorbed anti-CD3 mAb G19-4, in the presence or absence of 9.3 mAb 10 μg/ml, or 9.3 mAb alone. Cell death was scored after 1 to 3 days of culture and graded as 0 (none), 1+(20 to 70% of cells dead), and 2+(70 to 100% of cells dead), and was determined by visual inspection of the wells, and confirmed by trypan blue permeability.

CD28^+ T cells [1] = assay: Lymphokine secretion (IL-2, TNF-α/LT, IFN-γ, GM-CSF) by stimulated CD28+ T cells, with or without cyclosporine; format: cell-based, human; conditions: supernatant at 24 h; CSP 0.6 μg/ml where in label
CD28^+ T cells [2] = assay: Cell cycle analysis (S+G2+M), propidium iodide flow cytometry; format: cell-based, human; conditions: 48 h after stimulation
Method: In separate experiments, the relative levels of IL-2 for each of the culture conditions above were independently confirmed using a commercially available ELISA assay (Genzyme Corp., Boston, Mass.). TNF-α/LT levels were measured using a semi-automated L929 fibroblast lytic assay as previously described by Kunkel et al., J. Biol. Chem., 263:5380-5384 (1988). Units of TNF-α/LT were defined using an internal standard for TNF-α (Genzyme Corp., Boston Mass.). […] IFN-γ was measured by radioimmunoassay using a commercially available kit (Centocor, Malvern, Pa.). Units for IFN-γ were determined from a standard curve using ^125I-labeled human IFN-γ provided in the test kit. GM-CSF was detected by stimulation of proliferation of the human GM-CSF-dependent cell line AML-193, as described by Lange et al., Blood, 70:192-199 (1987), in the presence of neutralizing monoclonal antibodies to TNF-α and LT. The ^3H-thymidine uptake induced by 10 ng/ml of purified GM-CSF (Genetics Institute, Cambridge, Mass.) was defined as 100 U. Separate aliquots of cells were recovered 48 h after stimulation and assayed for the percentage of cells in late stages of the cell cycle (S+G2+M) by staining of cells with propidium iodide and analysis by flow cytometry as previously described by Thompson et al., Nature, 314:363-366 (1985). […]

[3] = system: CD28-stimulated IL-2 production of T cells; assay: CD28-stimulated IL-2 production with or without herbimycin A, bioassay; conditions: for IL-2: cells cultured in the single agent only, 24 h
CD28^+ T cells [4] = assay: T cell proliferation (3H-thymidine) in the presence of cyclosporine or dexamethasone; format: cell-based, human
Method: T cells, enriched by nylon wool filtration as described by Julius, et al., Euro. […] The above combinations also included […] titrations (from 25 ng/ml to 1.6 μg/ml) of cyclosporine (CSP) (Sandoz, Hanover, N.J.) dissolved in ethanol-Tween 80 as described by Wiesinger, et al., Immunobiol., 156:454-463 (1979).
^3H-thymidine incorporation was measured on day 3 of culture and the results representative of eight independent experiments are depicted in FIG. 3. […] Table 6 below illustrates the effects of cyclosporine on CD3-induced proliferation of CD28^+ T cells cultured at approximately 5×10^4 cells/well in flat-bottomed 96-well microtiter plates (CoStar, Cambridge, Mass.) under the following conditions: immobilized Mab G19-4; or immobilized mAb G19-4 and mAb 9.30 100 ng/ml; or immobilized mAb G19-4 and PMA 1 ng/ml; or Mab 9.3 100 ng/ml and PMA 1 ng/ml. Cyclosporine was prepared as above and included in the cultures at 0, 0.2, 0.4, 0.8, 1.2 μg/ml.
^3H-thymidine incorporation was determined on day 3 of culture as above. […] CD28^+ T cells cultured in the absence of cyclosporine were given cyclosporine diluent. ^3H-thymidine incorporation of cells cultured in medium, or PMA, or monoclonal antibody 9.3 only were less than 150 cpm.

CD28^+ T cells [5] = assay: IL-4, IL-5, IFN and IL-2 in supernatants by ELISA, initial stimulation and restimulation
Method: Supernatants from the cell culture were analyzed for lymphokine concentration using commercially available ELISA kits and the values expressed as pg/ml for IL-4, IL-5 and γ-IFN, or as units per ml, for IL-2. Supernatants were analyzed after 24 h of culture (Initial) or alternatively, the cells were cultured for 8 days in the above forms of stimulation, the cells were recovered, washed, and then restimulated with their original treatment, and the supernatants analyzed after a further 24 h of stimulation (Restimulation). The values represent means of duplicate cultures.
Supernatants from the cell culture were analyzed for lymphokine concentration using commercially available ELISA kits and the values expressed as pg/ml for IL-4, IL-5 and γ-IFN. Supernatants were analyzed after 24 h of culture (Initial) or, alternatively, the cells were cultured for 8 days in the above forms of stimulation, and then restimulated, and the supernatants analyzed after a further 24 h period of stimulation (Restimulation). The values represent means of duplicate cultures.

[6] = system: CD28-induced tyrosine phosphorylation; assay: Anti-phosphotyrosine immunoblot of PMA-treated T cells; format: cell-based, human; conditions: T cells treated overnight with PMA 5 ng/ml and herbimycin A
Method: Immunoblot analysis of protein tyrosine phosphorylation. Details of the immunoblot assay with anti-phosphotyrosine antibodies has been described in Hsi, E. D. et al., J. Biol. Chem., 264:10836 (1989) and June, C. H. et al., J. Immunol., 144:1591 (1990). Cells were suspended at 5−10×10^7 cells/ml in reaction media, i.e., HBSS containing 0.8% FCS and 20 Mm Hepes at 37° C. at time—3 m and stimulated at time 0 m. mAbs were used at 10 μg/ml final concentration. For crosslinking, biotinylated mAbs were incubated with cells for 5-8 m at room temperature, the cells prewarmed at time 3 min and stimulated with avidin (Sigma Chemical Co.) at a final concentration of 40 μg/ml at time 0. Stimulation was terminated by the addition of ice-cold 10× lysis buffer, yielding a final concentration of 0.5% Triton X-100. See June, J. Immunol., supra (1990).
CD28-induced tyrosine phosphorylation prevented by CD45 and by herbimycin. […] T cells were treated overnight with PMA (5 ng/ml) in the presence of the indicated concentration of herbimycin A or in control medium. […] Detergent-soluble proteins were processed as previously described.
To address the effects of phosphatases on CD28-mediated signal transduction, T cells were cultured overnight with PMA (5 ng/ml). […] Monoclonal antibodies were crosslinked with avidin at time 0. The reaction was terminated after 2 m. […]

Daudi = assay: Cytotoxicity of activated cells against Daudi; format: cell-based, human
Method: (§1) One lytic unit is equivalent to 20% lysis of 5×10^3 target cells per 1×10^6 effector cells as discussed in Press, H. F. et al., J. Clin. Immunol. 1:51-83 (1981). Various targets, including Daudi and K562, were tested.
In 5 different subjects, PBL were compared with T cells (E^+) in their ability to kill Daudi, K562, and BSB cells 8 days after being activated with OKT3. These experiments were performed in X-Vivo 10 supplemented with 5% human serum (HS). […]
Cytotoxicity induced by soluble or immobilized OKT3. In 7 experiments, cytotoxicity mediated by T cells after activation was compared with soluble or immobilized OKT3. […] These experiments were performed with E^+ cells in RPMI 1640 supplemented with 10% fetal bovine serum (FBS). Cytotoxicity was assessed 7 to 8 days after triggering with soluble (10 ng/ml) or immobilized (2 μg/ml) OKT3.
Either soluble OKT3 10 ng/ml(s) or immobilized OKT3 (coated with 2 μg/ml)(I) were added as indicated. […]

K562 = assay: Cytotoxicity of activated cells against K562; format: cell-based, human
Method: as §1
In 5 different subjects, PBL were compared with T cells (E^+) in their ability to kill Daudi, K562, and BSB cells 8 days after being activated with OKT3. These experiments were performed in X-Vivo 10 supplemented with 5% human serum (HS). The mean cytotoxicity in 5 normal subjects using PBL directed at Daudi, K562, and BSB were 15.0, 7.4, and 9.2 LU, respectively. In T cells from the same 5 subjects, the mean cytotoxicity directed at Daudi, K562, and BSB were 14.3, 7.7, and 9.3 LU, respectively.
(§2) Cytotoxicity as a function of in vitro time in cell culture. […] Cytotoxicity was a strong function of culture duration however, with <0.1, 24, 3.5, 0.5, 1.0 LU at 0, 8, 15, 22, and 29 days of culture. Similar results were found when Daudi was the target, with <0.01, 23, 5, 2, and 5 LU at 0, 8, 15, 22, and 29 days of culture.
Cytotoxicity induced by soluble or immobilized OKT3. In 7 experiments, cytotoxicity mediated by T cells after activation was compared with soluble or immobilized OKT3. Both methods induced cytotoxicity directed at Daudi and K562. Soluble OKT3 activated T cells mediated a mean cytotoxicity of 27 LU (SD-18) directed at Daudi and a mean cytotoxicity of 21 LU (SD-16) directed at K562. Immobilized OKT3 activated T cells mediated a mean cytotoxicity of 22 LU (SD-16) directed at Daudi and a mean cytotoxicity of 12 LU (SD-8) directed at K562. These experiments were performed with E^+ cells in RPMI 1640 supplemented with 10% fetal bovine serum (FBS). Cytotoxicity was assessed 7 to 8 days after triggering with soluble (10 ng/ml) or immobilized (2 μg/ml) OKT3.
(§3) Although the BMMNC population initially contained only 25% CD3^+ cells, proliferative and cytotoxic responses were excellent after 2 weeks of culture. […] In 4 experiments using normal bone marrow or autologous bone marrow, there was a median of 89-fold expansion of cells (range 18- to 173-fold) after 9 to 19 days of culture. Mean cytotoxicity directed at Daudi and K562 mediated by BMMNC stimulated with OKT3 was 5.5 LU (range 2-11) and 4.3 LU (range 2-8), respectively. […] Either soluble OKT3 10 ng/ml(s) or immobilized OKT3 (coated with 2 μg/ml)(I) were added as indicated.
(§4) Proliferative and cytotoxic responses from 3 patients were tested. […] Proliferation was assessed on day 3 of culture and cytotoxicity on day 7.

PBL, T cells or BMMNC = assay: Proliferation and expansion of PBL, T cells or BMMNC after OKT3 activation; format: cell-based, human; conditions: for Proliferation ^3H incorp.: day 3
Excerpt: as §2, §3, §4

[7] = RESTIMULATION after 8 days, further 24 h
[8] = BMMNC, 14 days after activation, 50 IU/ml IL-2
[9] = E+ cells, 7 to 8 days after triggering, 7 experiments, listed as Immobilized OKT3
[10] = E+ cells, 7 to 8 days after triggering, 7 experiments, listed as Soluble OKT3
[11] = PBL, 5 normal subjects, 8 days after activation

C[N+](C)(C)CCOC(N)=O [Carbacol, carbacol]
CELL DEATH (GRADE 0-2) (Jurkat line JHMI-2.2): 1+ (1+(20 to 70% of cells dead))

C[C@H](CCC(=O)O)C[C@H](C)C[C@H](C)C(=O)/C=C(\O)[C@H](C)C[C@H](C)C/C=C/[C@@H](C)[C@@H](O)[C@@H](C)[C@@H](O)C[C@@H]1CC[C@@](C)([C@H]2CC[C@@](C)([C@@H](C)O)O2)O1 [Ionomycin, ionomycin]
IFN-γ (CD28^+ T cells [1]): 0 U/ml
IL-2 (CD28^+ T cells [1]): <2 U/ml
TNF-α/LT (CD28^+ T cells [1]): 0 U/ml
S + G2 + M (CD28^+ T cells [2]): 6.6%
IL-2 [3]: < 10 U/ml

CCCCCCCCCCCCCC(=O)O[C@@H]1[C@@H](C)[C@@]2(O)[C@@H](C=C(CO)C[C@]3(O)C(=O)C(C)=C[C@@H]23)[C@@H]2C(C)(C)[C@]12OC(C)=O [PMA, phorbol myristate acetate]
IFN-γ (CD28^+ T cells [1]): 0 U/ml
IL-2 (CD28^+ T cells [1]): <2 U/ml
TNF-α/LT (CD28^+ T cells [1]): 0 U/ml
S + G2 + M (CD28^+ T cells [2]): 5.5%
^3HTdR (CD28^+ T cells [4]; Dexamethasone 0 Nm): 5,000
^3HTdR (CD28^+ T cells [4]; Dexamethasone 25 Nm): 1,400
^3H-thymidine incorporation (CD28^+ T cells [4]; cells cultured with the single agent only): less than 150 cpm
% INHIBIT (CD28^+ T cells [4]; inhibition of proliferation by dexamethasone): 72%
IL-2 [3]: < 10 U/ml
IFN (CD28^+ T cells [5]; INITIAL, 24 h of culture): 152 pg/mL
IL-2 (CD28^+ T cells [5]; INITIAL, 24 h of culture): .07 U/ml
IL-4 (CD28^+ T cells [5]; INITIAL, 24 h of culture): <1 pg/mL
IL-5 (CD28^+ T cells [5]; INITIAL, 24 h of culture): <1 pg/mL
IFN (CD28^+ T cells [5]; [7]): <1 pg/mL
IL-2 (CD28^+ T cells [5]; [7]): 0.6 U/ml
IL-4 (CD28^+ T cells [5]; [7]): <1 pg/mL
IL-5 (CD28^+ T cells [5]; [7]): <1 pg/mL

CO[C@H]1[C@@H](OC)C[C@H](C)[C@@H](OC)C2=CC(=O)C=C(NC(=O)/C(C)=C/C=C\[C@H](OC)[C@@H](OC(N)=O)/C(C)=C/[C@@H]1C)C2=O [herbimycin A]
Tyrosine phosphorylation induced by anti-CD28 mAb [6]: nearly completely prevented
PMA plus ionomycin-stimulated IL-2 secretion ([3]; herbimycin A 1 μM): resistant

OKT3: anti-CD3 mAb OKT3 (IgG2a), soluble or immobilized
mean cytotoxicity directed at Daudi (Daudi; [8]): 5.5 LU
mean cytotoxicity directed at Daudi (Daudi; [9]): 22 LU
mean cytotoxicity directed at Daudi (Daudi; [10]): 27 LU
mean cytotoxicity directed at Daudi (Daudi; [11]): 15.0 LU
mean cytotoxicity directed at Daudi (Daudi; T cells (E+), same 5 subjects): 14.3 LU
mean cytotoxicity directed at K562 (K562; [8]): 4.3 LU
mean cytotoxicity directed at K562 (K562; [9]): 12 LU
mean cytotoxicity directed at K562 (K562; [10]): 21 LU
mean cytotoxicity directed at K562 (K562; [11]): 7.4 LU
mean cytotoxicity directed at K562 (K562; T cells (E+), same 5 subjects): 7.7 LU
Proliferation ^3H incorp. (PBL, T cells or BMMNC; Bone Marrow #171, AML, Relapsed): 23,479 cpm
Proliferation ^3H incorp. (PBL, T cells or BMMNC; PBL P#632, non-Hodgkins lymphoma, pre-transplant): 58,670 cpm
Proliferation ^3H incorp. (PBL, T cells or BMMNC; PBL P#635, Hodgkins lymphoma, pre-transplant): 27,758 cpm
median expansion of cells (PBL, T cells or BMMNC; normal or autologous bone marrow, 4 experiments, 9 to 19 days): 89 fold
